Consider 13 molecules from PMC7004070 (Chemmedchem, 2019).

SMILES strings stand for the structures. “Also recorded” adds a separate entry of the source. Some results are limits rather than exact numbers.

For data set [1], the system named is FXR regulated genes (OSTα, SHP, CYP7A1) in HepG2 cells. In kind it is cell-based. Particulars: 10 μM, 12 h, qPCR, n=3. (Quantitative PCR measures a nucleic acid by following its amplification.)
For another data set, the target named is T1, human CysLT1R (Homo sapiens, UniProt Q9Y271).
T1 sequence (Q9Y271 1-337): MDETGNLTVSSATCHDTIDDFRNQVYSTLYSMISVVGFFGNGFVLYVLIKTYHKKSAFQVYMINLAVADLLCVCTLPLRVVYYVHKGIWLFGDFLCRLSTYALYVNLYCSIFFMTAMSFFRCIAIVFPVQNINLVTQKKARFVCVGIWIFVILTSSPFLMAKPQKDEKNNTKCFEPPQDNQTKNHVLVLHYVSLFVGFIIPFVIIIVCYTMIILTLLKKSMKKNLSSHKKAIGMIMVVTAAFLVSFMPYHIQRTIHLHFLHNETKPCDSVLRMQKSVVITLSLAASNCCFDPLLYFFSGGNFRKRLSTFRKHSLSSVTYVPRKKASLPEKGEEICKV
The experiment in a line: CysLT1R antagonism assay, cell-based.

A further data set has as its target T2, human full-length FXR (Homo sapiens, UniProt Q96RI1).
T2 sequence (Q96RI1 1-486): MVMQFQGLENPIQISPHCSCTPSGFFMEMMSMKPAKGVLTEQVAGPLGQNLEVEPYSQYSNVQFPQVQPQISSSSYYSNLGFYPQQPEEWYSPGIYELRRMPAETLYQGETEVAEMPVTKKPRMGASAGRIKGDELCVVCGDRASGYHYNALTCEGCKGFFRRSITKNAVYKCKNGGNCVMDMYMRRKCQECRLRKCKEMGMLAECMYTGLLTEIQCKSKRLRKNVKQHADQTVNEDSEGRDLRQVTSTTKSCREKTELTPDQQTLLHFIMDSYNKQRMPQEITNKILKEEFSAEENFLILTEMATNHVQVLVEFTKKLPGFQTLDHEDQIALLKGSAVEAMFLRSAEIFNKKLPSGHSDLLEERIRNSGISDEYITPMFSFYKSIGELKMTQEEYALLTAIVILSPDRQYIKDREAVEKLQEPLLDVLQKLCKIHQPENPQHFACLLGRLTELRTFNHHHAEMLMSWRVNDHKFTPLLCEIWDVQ
T2 sequence (P19793 1-462 partner): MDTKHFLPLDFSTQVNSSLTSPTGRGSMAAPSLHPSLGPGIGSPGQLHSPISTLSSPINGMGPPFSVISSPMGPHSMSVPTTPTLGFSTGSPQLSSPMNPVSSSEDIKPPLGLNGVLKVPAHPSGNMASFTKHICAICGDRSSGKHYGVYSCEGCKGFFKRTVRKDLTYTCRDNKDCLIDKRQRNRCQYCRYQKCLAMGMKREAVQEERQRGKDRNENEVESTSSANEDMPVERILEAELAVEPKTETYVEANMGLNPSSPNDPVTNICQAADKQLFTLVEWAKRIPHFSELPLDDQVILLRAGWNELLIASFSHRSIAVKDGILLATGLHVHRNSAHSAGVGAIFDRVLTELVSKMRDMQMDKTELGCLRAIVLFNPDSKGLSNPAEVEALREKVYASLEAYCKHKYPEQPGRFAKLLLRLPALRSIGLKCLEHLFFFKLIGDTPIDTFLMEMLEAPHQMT
The experiment in a line: full-length FXR-BSEP reporter gene assay. In kind it is cell-based. To be noted: for Emax: HeLa, read-out: FXR max. rel. act.; for FXR EC50: full-length FXR-BSEP reporter gene assay, HeLa cells, mean±S.E.M., n≥3, inactive = no significant activation up to 30 μM.

Another data set concerns HepG2 cells. The experiment in a line: WST-1 assay in HepG2 cells. In kind it is cell-based. To be noted: n=4; for cytotoxicity compared to 3: WST-1 assay in HepG2 cells; for concentration with anti-proliferative / toxic effect: WST-1 assay, HepG2 cells, 24 h. (In general: Tetrazolium assays rely on reduction of a dye to a coloured formazan, in cell work by metabolically active cells.)

A further data set deals with T3, RARα (Homo sapiens, UniProt P10276).
T3 sequence (P10276 183-417 limits assumed): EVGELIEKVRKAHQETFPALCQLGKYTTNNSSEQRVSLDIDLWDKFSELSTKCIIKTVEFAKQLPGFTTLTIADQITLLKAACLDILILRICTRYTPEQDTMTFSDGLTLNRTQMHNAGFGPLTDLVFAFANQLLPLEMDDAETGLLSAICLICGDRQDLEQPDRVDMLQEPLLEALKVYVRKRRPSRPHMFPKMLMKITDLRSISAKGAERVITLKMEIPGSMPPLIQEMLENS
The data set can be described thus: Gal4 hybrid reporter gene assay for RARα in HEK293T cells. Particulars: mean, n=2. In kind it is cell-based.

Data set [2] has as its system nuclear receptors related to FXR (PPARα, PPARγ, PPARδ, LXRα, LXRβ, RXRα, RARα, CAR). The data set can be described thus: Gal4 hybrid reporter gene assays for nuclear receptors related to FXR. In kind it is cell-based, human. Particulars: HEK293T, mean, n=2. A general note: A reporter such as luciferase makes a cellular process visible.
The target in data set [3] is T4, sEH in HepG2 cell homogenate (Homo sapiens, UniProt P34913).
T4 sequence (P34913 1-555): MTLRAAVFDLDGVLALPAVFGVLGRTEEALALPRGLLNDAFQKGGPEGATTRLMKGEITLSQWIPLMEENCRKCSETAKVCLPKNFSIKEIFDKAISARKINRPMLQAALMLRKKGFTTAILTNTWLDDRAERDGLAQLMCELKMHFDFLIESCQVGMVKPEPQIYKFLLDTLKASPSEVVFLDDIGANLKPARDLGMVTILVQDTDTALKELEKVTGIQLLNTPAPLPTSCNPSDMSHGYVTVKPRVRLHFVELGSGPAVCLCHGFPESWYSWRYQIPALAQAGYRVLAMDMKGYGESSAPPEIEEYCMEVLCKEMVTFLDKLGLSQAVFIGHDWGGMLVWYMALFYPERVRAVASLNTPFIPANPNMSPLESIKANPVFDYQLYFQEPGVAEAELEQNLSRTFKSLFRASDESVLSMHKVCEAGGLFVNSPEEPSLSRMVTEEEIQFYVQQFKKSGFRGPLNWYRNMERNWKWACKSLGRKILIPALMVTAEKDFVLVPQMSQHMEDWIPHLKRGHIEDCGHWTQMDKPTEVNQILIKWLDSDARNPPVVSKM
The experiment in a line: Cellular sEH assay: conversion of. In kind it is cell-based. Particulars: 10 μM; HepG2 homogenates; (±)14(15)-EET-d11; n≥4.

Another data set has as its target T5, recombinant human sEH (Homo sapiens, UniProt P34913).
T5 sequence (P34913 1-555): T4 sequence (P34913 1-555)
The experiment in a line: sEH activity assay on recombinant protein. In kind it is biochemical.

Another data set concerns the target CysLT1R. To be noted: read-out: CysLT1R Ki; cited from earlier work.

What is called IC50 is the concentration that gives 50% inhibition. Turning to `CC(C)(C)c1ccc(C(=O)Nc2ccc3ccn(Cc4ccc(C(=O)O)cc4)c3c2)cc1` [compound 16, 4‐((6‐(4‐(tert‐Butyl)benzamido)‐1H‐indol‐1‐yl)methyl)benzoic acid], in data set [1], the OSTα expression result is given as “induced expression” and the SHP expression result is listed as “induced expression”. Also, the IC50 at human CysLT1R is more than 1 µM. Moreover, the Emax on human full-length FXR was 24%. Further, in the data set with HepG2 cells, the “cytotoxicity compared to 3” value is reported as “reduced cytotoxicity; also recorded: strongly reduced toxicity” and the “concentration with anti-proliferative / toxic effect” value is more than 10 µM. At RARα, the RARα activation entry was “considerable RARα agonism; also recorded: marked RARα activation”. For the same molecule, the “selectivity over nuclear receptors related to FXR” value in data set [2] is reported as “selective; also recorded: high selectivity”. Also, the “conversion of EET to DHET (cellular sEH inhibition)” value in data set [3] is listed as “blocked EET conversion to DHETs”.

A word on the EC50: it is the midpoint of the concentration-response curve. The low end stands for an effect from little substance, the high end for a need for much substance. With `COc1cc(C(=O)O)ccc1Cc1cn(C(C)C)c2ccc(NC(=O)c3ccc(C(C)(C)C)cc3)cc12` [compound 11, 4‐((5‐(4‐(tert‐Butyl)benzamido)‐1‐isopropyl‐1H‐indol‐3‐yl)methyl)‐3‐methoxybenzoic acid], at human full-length FXR, the EC50 amounted to 2.3 ± 0.1 µM and the Emax was 11%. Besides, on recombinant human sEH, the half-inhibitory concentration (IC50) was more than 100 µM.

With `COc1cc(C(=O)O)ccc1Cc1cn(C)c2ccc(NC(=O)c3ccc(C(C)(C)C)cc3)cc12` [compound 5, 4‐((5‐(4‐(tert‐Butyl)benzamido)‐1‐methyl‐1H‐indol‐3‐yl)methyl)‐3‐methoxybenzoic acid], at human full-length FXR, it took 0.6 ± 0.2 µM to reach a half-maximal effect (EC50) and the Emax is 29%. On recombinant human sEH, the IC50 is more than 30 µM.

`Cn1cc(Cc2ccc(C(=O)O)cc2)c2cc(NC(=O)c3ccc(C(C)(C)C)cc3)ccc21` [compound 8, 4‐((5‐(4‐(tert‐Butyl)benzamido)‐1‐methyl‐1H‐indol‐3‐yl)methyl)benzoic acid] showed an EC50 on human full-length FXR of more than 10 µM. Further, the IC50 on recombinant human sEH was 12 ± 1 µM.

In the case of `CC(C)(C)c1ccc(C(=O)Nc2ccc3ccn(Cc4cccc(C(=O)O)c4)c3c2)cc1` [compound 15, 3‐((6‐(4‐(tert‐Butyl)benzamido)‐1H‐indol‐1‐yl)methyl)benzoic acid], the “FXR EC50” value on human full-length FXR was “inactive”. Further, the half-maximal inhibitory concentration (IC50) on recombinant human sEH turned out to be 4.3 ± 0.4 µM.

On to `COc1cc(C(=O)O)ccc1Cc1cn(C)c2ccc(NC(=O)c3ccncc3)cc12` [compound 7, 4‐((5‐(Isonicotinamido)‐1‐methyl‐1H‐indol‐3‐yl)methyl)‐3‐methoxybenzoic acid], for which, on human full-length FXR, the response was half-maximal at 0.91 ± 0.06 µM (EC50) and the Emax was 15%. Also, the IC50 on recombinant human sEH was more than 100 µM.

Turning to `COc1ccc(C(=O)O)cc1Cc1cn(C)c2ccc(NC(=O)c3ccc(C(C)(C)C)cc3)cc12` [compound 9, 3‐((5‐(4‐tert‐Butylbenzamido)‐1‐methyl‐1H‐indol‐3‐yl)methyl)‐4‐methoxybenzoic acid], the “FXR EC50” value at human full-length FXR was “inactive”. Further, the concentration for half-maximal inhibition (IC50) at recombinant human sEH was found to be 86 ± 10 µM.

With `COc1cc(C(=O)O)ccc1Cn1ccc2ccc(NC(=O)c3ccc(C(C)(C)C)cc3)cc21` [compound 13, 4‐((6‐(4‐(tert‐Butyl)benzamido)‐1H‐indol‐1‐yl)methyl)‐3‐methoxybenzoic acid], in data set [1], the OSTα expression entry is reported as “induced expression” and the SHP expression entry is given as “induced expression”. Also, the IC50 against human CysLT1R was approximately 1 µM. For the same molecule, at human full-length FXR (13 compared to 16), the “higher potency on FXR compared to 16” value was “approx. 10 fold”. In addition, the Emax on human full-length FXR is 15%. The “improvement of EC50 value on FXR compared to 3” value on human full-length FXR (compared to 3) is 15 fold. In addition, in the data set on HepG2 cells, the “cytotoxicity compared to 3” value was “reduced cytotoxicity; also recorded: strongly reduced toxicity” and the “concentration with anti-proliferative / toxic effect” value is more than 10 µM. Besides, the “selectivity over nuclear receptors related to FXR” value in data set [2] is recorded as “selective; also recorded: high selectivity”. Also, the “conversion of EET to DHET (cellular sEH inhibition)” value in data set [3] is “blocked EET conversion to DHETs”.

As for `COc1cc(C(=O)O)ccc1Cc1cn(C)c2ccc(NC(=O)c3c(-c4c(Cl)cccc4Cl)noc3C(C)C)cc12` [compound 6, 4‐((5‐(3‐(2,6‐Dichlorophenyl)‐5‐isopropylisoxazole‐4‐carboxamido)‐1‐methyl‐1H‐indol‐3‐yl)methyl)‐3‐methoxybenzoic acid], the “FXR EC50” value on human full-length FXR was “inactive”. Moreover, the 50% inhibitory concentration (IC50) on recombinant human sEH turned out to be 3.3 ± 0.6 µM.

A word on the Ki: it is a measure of affinity in units of concentration, obtained from inhibition or displacement. Take `COc1cc(C(=O)NS(=O)(=O)c2ccccc2C)ccc1Cc1cn(C)c2ccc(NC(=O)OC3CCCC3)cc12` [compound 3, Zafirlukast, reference compound]: in the data set on HepG2 cells, the “concentration with anti-proliferative / toxic effect” value is not below 1 µM. Moreover, on CysLT1R, the inhibitory constant (Ki) is 0.0003 µM.

On to `COc1cc(C(=O)O)ccc1Cn1ccc2cc(NC(=O)c3ccc(C(C)(C)C)cc3)ccc21` [compound 12, 4‐((5‐(4‐(tert‐Butyl)benzamido)‐1H‐indol‐1‐yl)methyl)‐3‐methoxybenzoic acid], for which, at human full-length FXR, the 50% effective concentration (EC50) was determined as 9.2 ± 0.8 µM and the Emax is 23%. On recombinant human sEH, the IC50 was more than 100 µM.

As to `Cn1cc(Cc2cccc(C(=O)O)c2)c2cc(NC(=O)c3ccc(C(C)(C)C)cc3)ccc21` [compound 10, 3‐((5‐(4‐(tert‐Butyl)benzamido)‐1‐methyl‐1H‐indol‐3‐yl)methyl)benzoic acid], at human full-length FXR, it took 1.19 ± 0.08 µM to reach a half-maximal effect (EC50) and the Emax was 18%. Besides, the IC50 at recombinant human sEH worked out at 22 ± 3 µM.

As to `COc1cc(C(=O)O)ccc1Cn1cnc2ccc(NC(=O)c3ccc(C(C)(C)C)cc3)cc21` [compound 14, 4‐((6‐(4‐(tert‐Butyl)benzamido)‐1H‐benzoimidazol‐1‐yl)methyl)‐3‐methoxybenzoic acid], on human full-length FXR, the EC50 stood at 5.3 ± 0.4 µM and the Emax is 26%. The concentration for half-maximal inhibition (IC50) on recombinant human sEH came out at 18 ± 5 µM. The “decrease of activity on sEH compared to 13” value at recombinant human sEH (benzimidazole 14 vs indole 13) is given as “approx. 10 fold”.
